In patent US9206156B2, “Substituted indole derivatives” (GRÜNENTHAL GMBH, priority 2008, dated 2015):

Key:
[1] = molecular target: T1, human μ-opiate receptor (Homo sapiens, UniProt P35372); experiment: μ-opiate receptor binding assay with [3H] naloxone (WGA-SPA beads); conditions: 1 μmol/l test substance, 1 nmol/l [3H] naloxone, CHO-K1 cell membranes expressing human μ-opiate receptor
T1 construct: purchased NEN, Zaventem, Belgium RB-HOM; host or cells: CHO-K1 cells (membrane preparation)
Protocol: The receptor affinity to the human μ-opiate receptor was determined in a homogeneous batch in microtitre plates. To this end, dilution series of the substituted indole derivative to be tested were incubated for 90 minutes at room temperature with a receptor membrane preparation (15-40 μg protein per 250 μl incubation batch) of CHO-K1 cells, which express the human μ-opiate receptor (RB—HOM receptor membrane preparation from NEN, Zaventem, Belgium), in the presence of 1 nmol/l of the radioactive ligand [^3H] naloxone (NET719, NEN, Zaventem, Belgium) and 1 mg of WGA-SPA beads (wheat germ agglutinin SPA beads from Amersham/Pharmacia, Freiburg, Germany) in a total volume of 250 μl. 50 mmol/l tris-HCl supplemented with 0.05 wt. % sodium azide and 0.06 wt. % bovine serum albumin were used as the incubation buffer. In order to determine the non-specific binding, 25 μmol/l of naloxone were also added. At the end of the ninety-minute incubation period the microtitre plates were centrifuged for 20 minutes at 1000 g and the radioactivity was measured in a β counter (Microbeta-Trilux, PerkinElmer Wallac, Freiburg, Germany). The percentage displacement of the radioactive ligand from its binding to the human μ-opiate receptor was determined at a test substance concentration of 1 μmol/l and stated as the percentage inhibition (% inhibition) of the specific binding. In some cases the percentage displacement due to differing concentrations of the compounds having the general formula I to be tested was used to calculate the IC50 inhibition concentrations which bring about a 50-percent displacement of the radioactive ligand. Ki values for the test substances were obtained by extrapolation using the Cheng-Prusoff equation.

[2] = molecular target: T2, ORL1 receptor (Homo sapiens, UniProt P41146); experiment: ORL1 receptor binding assay with 3H-nociceptin/orphanin FQ (WGA-SPA beads); conditions: c=1 μM test substance; 0.5 nM 3H-nociceptin/orphanin FQ; membranes of recombinant CHO-ORL1 cells
T2 construct: expressed in transfected cells; host or cells: CHO (recombinant CHO-ORL1 cells), membranes
T2 sequence (P41146 whole entry): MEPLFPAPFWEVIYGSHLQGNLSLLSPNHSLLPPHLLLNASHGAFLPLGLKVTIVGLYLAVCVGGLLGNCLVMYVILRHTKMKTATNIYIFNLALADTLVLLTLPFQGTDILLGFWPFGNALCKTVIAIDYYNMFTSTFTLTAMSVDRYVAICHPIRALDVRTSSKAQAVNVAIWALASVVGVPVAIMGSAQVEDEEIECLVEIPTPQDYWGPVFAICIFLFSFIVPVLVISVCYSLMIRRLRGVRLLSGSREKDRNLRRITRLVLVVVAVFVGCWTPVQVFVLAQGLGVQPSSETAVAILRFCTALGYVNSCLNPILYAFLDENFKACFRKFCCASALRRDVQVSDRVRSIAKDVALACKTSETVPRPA
Protocol: Measurement of ORL1 Binding
The cyclohexane derivatives having the general formula I were investigated in a receptor binding assay with ^3H-nociceptin/orphanin FQ with membranes of recombinant CHO—ORL1 cells. This test system was conducted in accordance with the method described by Ardati et al. (Mol. Pharmacol., 51, 1997, p. 816-824). The concentration of ^3H-nociceptin/orphanin FQ in these tests was 0.5 nM. The binding assays were carried out with 20 μg amounts of membrane protein per 200 μl batch in 50 mM Hepes, pH 7.4, 10 mM MgCl2 and 1 mM EDTA. The binding to the ORL1 receptor was determined using 1 mg amounts of WGA-SPA beads (Amersham-Pharmacia, Freiburg, Germany), by incubation of the batch for one hour at room temperature and subsequent measurement in a Trilux scintillation counter (Wallac, Finland). The affinity is given in Table 1 as the nanomolar Ki value or in % inhibition at c=1 μM.

T1 sequence (P35372 whole entry): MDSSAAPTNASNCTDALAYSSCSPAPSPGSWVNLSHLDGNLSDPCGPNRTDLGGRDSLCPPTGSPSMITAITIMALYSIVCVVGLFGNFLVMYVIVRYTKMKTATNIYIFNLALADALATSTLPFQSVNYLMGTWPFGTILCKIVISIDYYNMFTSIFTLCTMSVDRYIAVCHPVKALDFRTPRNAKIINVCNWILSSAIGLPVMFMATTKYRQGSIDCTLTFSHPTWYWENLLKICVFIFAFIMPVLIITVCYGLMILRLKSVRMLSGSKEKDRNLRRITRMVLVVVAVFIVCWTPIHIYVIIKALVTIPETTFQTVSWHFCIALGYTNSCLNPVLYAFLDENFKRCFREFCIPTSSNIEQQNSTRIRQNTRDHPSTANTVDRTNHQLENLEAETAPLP

Structure (SMILES) | inhibition at 1 µM [1] | inhibition at 1 µM [2] | also measured
CN(CCN1CCC(c2ccccc2)(N(C)C)CC1)C(=O)c1ccc2cc[nH]c2c1 [Example 1, N-(2-(4-(Dimethylamino)-4-phenylpiperidin-1-yl)ethyl)-N-methyl-1H-indol-6-amide] | – | – | % Inhibition (μ) at 1 μM ([1]; 1 µM): 94%; % Inhibition (ORL1) at 1 μM [2]: 80%
CC(C)C(CC(=O)NCCN1CCC(c2cccs2)(N(C)C)CC1)c1c[nH]c2ccccc12 (stereo not shown) [Example 2, N-(2-(4-(Dimethylamino)-4-(thiophen-2-yl)piperidin-1-yl)ethyl)-3-(1H-indol-3-yl)-4-methylpentanamide] | 99% | 96% | –
CN(CCN1CCC(c2ccccc2)(N(C)C)CC1)C(=O)c1cc2cc(F)ccc2[nH]1 [Example 3, N-(2-(4-(Dimethylamino)-4-phenylpiperidin-1-yl)ethyl)-5-fluoro-N-methyl-1H-indol-2-amide] | – | – | % Inhibition (μ) at 1 μM ([1]; 1 µM): 92%; % Inhibition (ORL1) at 1 μM [2]: 90%
CN(CCN1CCC(c2ccccc2)(N(C)C)CC1)C(=O)CCc1c[nH]c2ccccc12 [Example 4, N-(2-(4-(Dimethylamino)-4-phenylpiperidin-1-yl)ethyl)-3-(1H-indol-3-yl)-N-methylpropanamide] | 93% | 86% | –
CN(C)C1(c2cccs2)CCN(CCNC(=O)CCc2c[nH]c3ccccc23)CC1 [Example 5, N-(2-(4-(Dimethylamino)-4-(thiophen-2-yl)piperidin-1-yl)ethyl)-3-(1H-indol-3-yl)propanamide] | 98% | 89% | –
CC(C)C(CC(=O)NCCN1CCC(c2cccs2)(N(C)C)CC1)c1c[nH]c2ccccc12 (stereo not shown) [Example 6, N-(2-(4-(Dimethylamino)-4-(thiophen-2-yl)piperidin-1-yl)ethyl)-3-(1H-indol-3-yl)-4-methylpentanamide] | – | – | % Inhibition (μ) at 1 μM ([1]; 1 µM): 102%; % Inhibition (ORL1) at 1 μM [2]: 98%
CN(C)C1(c2cccs2)CCN(CCNC(=O)C2CCCc3c2[nH]c2ccc(Cl)cc32)CC1 (stereo not shown) [Example 7, 6-Chloro-N-(2-(4-(dimethylamino)-4-(thiophen-2-yl)piperidin-1-yl)ethyl)-2,3,4,9-tetrahydro-1H-carbazole-1-carboxamide] | 95% | 62% | –
CN(C)C1(c2cccs2)CCN(CCNC(=O)Cc2c[nH]c3cc(F)ccc23)CC1 [Example 8, N-(2-(4-(Dimethylamino)-4-(thiophen-2-yl)piperidin-1-yl)ethyl)-2-(6-fluoro-1H-indol-3-yl)acetamide] | 99% | 96% | –
CN(C)C1(c2cccs2)CCN(CCNC(=O)c2ccc3ccn(C)c3c2)CC1 [Example 9, N-(2-(4-(Dimethylamino)-4-(thiophen-2-yl)piperidin-1-yl)ethyl)-1-methyl-1H-indole-6-carboxamide] | 101% | 77% | –
CN(C)C1(c2cccs2)CCN(CCNC(=O)c2cccc3c2ccn3C)CC1 [Example 10, N-(2-(4-(Dimethylamino)-4-(thiophen-2-yl)piperidin-1-yl)ethyl)-1-methyl-1H-indole-4-carboxamide] | 99% | 56% | –
CN(CCCN1CCC(c2cccs2)(N(C)C)CC1)C(=O)c1c[nH]c2ccccc12 [Example 11, N-(3-(4-(Dimethylamino)-4-(thiophen-2-yl)piperidin-1-yl)propyl)-N-methyl-1H-indole-3-carboxamide] | 86% | 80% | –
CN(CCN1CCC(c2ccccc2)(N(C)C)CC1)C(=O)c1c[nH]c2ccccc12 [Example 12, N-(2-(4-(Dimethylamino)-4-phenylpiperidin-1-yl)ethyl)-N-methyl-1H-indole-3-carboxamide] | 84% | 67% | –
CC(C)C(CC(=O)N(C)CCN1CCC(c2ccccc2)(N2CCCC2)CC1)c1c[nH]c2ccccc12 (stereo not shown) [Example 32, 3-(1H-Indol-3-yl)-N,4-dimethyl-N-(2-(4-phenyl-4-(pyrrolidin-1-yl)piperidin-1-yl)ethyl)pentanamide] | 61% | – | –
CCCCC1(N(C)C)CCN(CCN(C)C(=O)c2ccc3ccn(C)c3c2)CC1 [Example 38, N-(2-(4-Butyl-4-(dimethylamino)piperidin-1-yl)ethyl)-N,1-dimethyl-1H-indole-6-carboxamide] | 68% | – | –
CN(CCN1CCC(c2ccccc2)(N2CCCC2)CC1)C(=O)c1cccc2c1ccn2C [Example 40, N,1-Dimethyl-N-(2-(4-phenyl-4-(pyrrolidin-1-yl)piperidin-1-yl)ethyl)-1H-indole-4-carboxamide] | 40% | – | –
CN(CCN1CCC(c2ccccc2)(N2CCCC2)CC1)C(=O)c1c[nH]c2ccccc12 [Example 46, N-Methyl-N-(2-(4-phenyl-4-(pyrrolidin-1-yl)piperidin-1-yl)ethyl)-1H-indole-3-carboxamide] | 20% | – | –
CCCCC1(N(C)C)CCN(CCN(C)C(=O)c2c[nH]c3ccccc23)CC1 [Example 47, N-(2-(4-Butyl-4-(dimethylamino)piperidin-1-yl)ethyl)-N-methyl-1H-indole-3-carboxamide] | 61% | – | –
CN(CCN1CCC(c2ccccc2)(N2CCCC2)CC1)C(=O)CCc1cn(C)c2ccccc12 [Example 48, N-Methyl-3-(1-methyl-1H-indol-3-yl)-N-(2-(4-phenyl-4-(pyrrolidin-1-yl)piperidin-1-yl)ethyl)propanamide] | 14% | – | –
CN(CCN1CCC(c2ccccc2)(N2CCCC2)CC1)C(=O)c1ccc2cc[nH]c2c1 [Example 54, N-Methyl-N-(2-(4-phenyl-4-(pyrrolidin-1-yl)piperidin-1-yl)ethyl)-1H-indole-6-carboxamide] | 15% | – | –
CCCCC1(N(C)C)CCN(CCN(C)C(=O)c2ccc3cc[nH]c3c2)CC1 [Example 55, N-(2-(4-Butyl-4-(dimethylamino)piperidin-1-yl)ethyl)-N-methyl-1H-indole-6-carboxamide] | 66% | – | –
CC(CC(=O)N(C)CCN1CCC(c2ccccc2)(N2CCCC2)CC1)c1c[nH]c2ccccc12 (stereo not shown) [Example 57, 3-(1H-Indol-3-yl)-N-methyl-N-(2-(4-phenyl-4-(pyrrolidin-1-yl)piperidin-1-yl)ethyl)butanamide] | 45% | – | –
COc1ccc2[nH]c(C(=O)N(C)CCN3CCC(c4ccccc4)(N4CCCC4)CC3)cc2c1 [Example 64, 5-Methoxy-N-methyl-N-(2-(4-phenyl-4-(pyrrolidin-1-yl)piperidin-1-yl)ethyl)-1H-indole-2-carboxamide] | 18% | – | –
CCCCC1(N(C)C)CCN(CCN(C)C(=O)c2cc3cc(OC)ccc3[nH]2)CC1 [Example 65, N-(2-(4-Butyl-4-(dimethylamino)piperidin-1-yl)ethyl)-5-methoxy-N-methyl-1H-indole-2-carboxamide] | 42% | – | –
CN(CCN1CCC(c2ccccc2)(N2CCCC2)CC1)Cc1c[nH]c2ccccc12 [Example 137, N-((1H-indol-3-yl)methyl)-N-methyl-2-(4-phenyl-4-(pyrrolidin-1-yl)piperidin-1-yl)ethanamine] | 82% | – | –
CCCCC1(N(C)C)CCN(CCN(C)Cc2ccc3[nH]ccc3c2)CC1 [Example 141, 1-(2-(((1H-indol-5-yl)methyl)(methyl)amino)ethyl)-4-butyl-N,N-dimethylpiperidin-4-amine] | 82% | – | –
CN(CCN1CCC(c2ccccc2)(N2CCCC2)CC1)Cc1c[nH]c2ccc(Br)cc12 [Example 153, N-((5-bromo-1H-indol-3-yl)methyl)-N-methyl-2-(4-phenyl-4-(pyrrolidin-1-yl)piperidin-1-yl)ethanamine] | 93% | – | –
CN(CCN1CCC(c2ccccc2)(N2CCCC2)CC1)Cc1cccc2[nH]ccc12 [Example 159, N-((1H-indol-4-yl)methyl)-N-methyl-2-(4-phenyl-4-(pyrrolidin-1-yl)piperidin-1-yl)ethanamine] | 64% | – | –
CCCCC1(N(C)C)CCN(CCN(C)Cc2cccc3[nH]ccc23)CC1 [Example 160, 1-(2-(((1H-indol-4-yl)methyl)(methy)amino)ethyl)-4-butyl-N,N-dimethylpiperidin-4-amine] | – | – | % Inhibition (μ) at 1 μM [1]: 87%
